Measured values published in ChEMBL document CHEMBL4610014, “Discovery of novel 2,4-disubstituted pyrimidines as Aurora kinase inhibitors” (Bioorg Med Chem Lett, 2020).
Activity calls are given as the source filed them. No cut-off for these calls is given here.

Key:
[1] = test system: A549; assay: Antiproliferative activity against human A549 cells assessed as reduction in cell viability after 72 hrs by MTT assay; type: functional, cell-based; settings: A549, 72 h
[2] = test system: MCF7; assay: Antiproliferative activity against human MCF7 cells assessed as reduction in cell viability after 72 hrs by MTT assay; type: functional, cell-based; settings: MCF7, 72 h
[3] = test system: HCT-116; assay: Antiproliferative activity against human HCT116 cells assessed as reduction in cell viability after 72 hrs by MTT assay; type: functional, cell-based; settings: HCT-116, 72 h
[4] = molecular target: Fibroblast growth factor receptor 1 (Homo sapiens) (UniProt P11362); assay: Inhibition of FGFR1 (unknown origin) at 1 uM after 1 hr in presence of ATP by Kinase-Glo reagent-based luminescence assay relative to control
[5] = molecular target: Vascular endothelial growth factor receptor 2 (Homo sapiens) (UniProt P35968); assay: Inhibition of VEGFR2 (unknown origin) at 1 uM after 1 hr in presence of ATP by Kinase-Glo reagent-based luminescence assay relative to control
[6] = molecular target: T1, Aurora kinase B (Homo sapiens, UniProt Q96GD4); assay: Inhibition of Aurora B (unknown origin) after 1 hr in presence of ATP by Kinase-Glo reagent-based luminescence assay
[7] = molecular target: Phosphatidylinositol 4,5-bisphosphate 3-kinase catalytic subunit alpha isoform (Homo sapiens) (UniProt P42336); assay: Inhibition of PI3Kalpha (unknown origin) at 1 uM after 1 hr in presence of ATP by Kinase-Glo reagent-based luminescence assay relative to control
[8] = test system: HCT-116; assay: Induction of apoptosis in human HCT116 cells assessed as decrease in bcl-xl protein expression at 0.5 to 5 uM after 12 hrs by Western blot analysis; type: functional, cell-based
[9] = test system: HCT-116; assay: Induction of apoptosis in human HCT116 cells assessed as viable cells at 1 uM after 48 hrs by Annexin-V/PI-staining based flow cytometry (reference value: 89.72%); type: functional; settings: HCT-116, 48 h, read-out: Activity
[10] = test system: HCT-116; assay: Induction of apoptosis in human HCT116 cells assessed as early apoptotic cells at 0.1 uM after 48 hrs by Annexin-V/PI-staining based flow cytometry (reference value: 0.54%); type: functional
[11] = test system: HCT-116; assay: Induction of apoptosis in human HCT116 cells assessed as late apoptotic cells at 1 uM after 48 hrs by Annexin-V/PI-staining based flow cytometry (reference value: 3.34%); type: functional
[12] = test system: HCT-116; assay: Induction of apoptosis in human HCT116 cells assessed as late apoptotic cells at 0.5 uM after 48 hrs by Annexin-V/PI-staining based flow cytometry (reference value: 3.34%); type: functional
[13] = test system: HCT-116; assay: Induction of apoptosis in human HCT116 cells assessed as necrotic cells at 0.1 uM after 48 hrs by Annexin-V/PI-staining based flow cytometry (reference value: […]); type: functional
[14] = test system: HCT-116; assay: Induction of apoptosis in human HCT116 cells assessed as necrotic cells at 1 uM after 48 hrs by Annexin-V/PI-staining based flow cytometry (reference value: […]); type: functional
[15] = test system: HCT-116; assay: Induction of apoptosis in human HCT116 cells assessed as necrotic cells after 48 hrs by Annexin-V/PI-staining based flow cytometry; type: functional, cell-based
[16] = test system: HCT-116; assay: Induction of apoptosis in human HCT116 cells assessed as early apoptotic cells at 1 uM after 48 hrs by Annexin-V/PI-staining based flow cytometry (reference value: 0.54%); type: functional
[17] = test system: HCT-116; assay: Induction of apoptosis in human HCT116 cells assessed as viable cells at 0.1 uM after 48 hrs by Annexin-V/PI-staining based flow cytometry (reference value: 89.72%); type: functional; settings: HCT-116, 48 h, read-out: Activity
[18] = test system: HCT-116; assay: Induction of apoptosis in human HCT116 cells assessed as increase in bax protein expression at 0.5 to 5 uM after 12 hrs by Western blot analysis; type: functional, cell-based
[19] = molecular target: T1, Aurora kinase B; assay: Inhibition of Aurora B in human HCT116 cells assessed as reduction in phosphorylation at Thr232 residue at 0.5 to 5 uM after 12 hrs by Western blot analysis; type: cell-based; settings: HCT-116
[20] = test system: HCT-116; assay: Induction of apoptosis in human HCT116 cells assessed as viable cells at 0.5 uM after 48 hrs by Annexin-V/PI-staining based flow cytometry (reference value: 89.72%); type: functional; settings: HCT-116, 48 h, read-out: Activity
[21] = molecular target: T2, Aurora kinase A (Homo sapiens) (UniProt O14965); assay: Inhibition of Aurora A in human HCT116 cells assessed as reduction in phosphorylation at Thr288 residue at 0.5 to 5 uM after 12 hrs by Western blot analysis; type: cell-based; settings: HCT-116
T2 sequence (whole entry): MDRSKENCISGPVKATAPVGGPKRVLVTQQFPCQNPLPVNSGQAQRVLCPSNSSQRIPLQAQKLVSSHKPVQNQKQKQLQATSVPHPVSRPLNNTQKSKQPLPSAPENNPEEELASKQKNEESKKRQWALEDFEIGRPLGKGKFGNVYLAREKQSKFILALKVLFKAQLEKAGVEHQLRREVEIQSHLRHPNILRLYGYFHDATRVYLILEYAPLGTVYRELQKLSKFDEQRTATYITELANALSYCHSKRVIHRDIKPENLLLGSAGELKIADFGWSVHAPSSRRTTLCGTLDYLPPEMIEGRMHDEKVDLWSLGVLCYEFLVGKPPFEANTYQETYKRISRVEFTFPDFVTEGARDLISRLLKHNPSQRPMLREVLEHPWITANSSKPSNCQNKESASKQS

[22] = test system: HCT-116; assay: Induction of apoptosis in human HCT116 cells assessed as necrotic cells at 0.5 uM after 48 hrs by Annexin-V/PI-staining based flow cytometry (reference value: […]); type: functional
[23] = test system: HCT-116; assay: Induction of apoptosis in human HCT116 cells assessed as late apoptotic cells at 0.1 uM after 48 hrs by Annexin-V/PI-staining based flow cytometry (reference value: 3.34%); type: functional
[24] = test system: HCT-116; assay: Induction of apoptosis in human HCT116 cells assessed as early apoptotic cells at 0.5 uM after 48 hrs by Annexin-V/PI-staining based flow cytometry (reference value: 0.54%); type: functional
[25] = molecular target: T3, Aurora kinase A (Homo sapiens, UniProt O14965); assay: Inhibition of Aurora A (unknown origin) after 1 hr in presence of ATP by Kinase-Glo reagent-based luminescence assay
T3 sequence (O14965 whole entry): T2 sequence (whole entry)

[26] = molecular target: T4, Aurora kinase C (Homo sapiens, UniProt Q9UQB9)
T4 sequence (Q9UQB9 whole entry): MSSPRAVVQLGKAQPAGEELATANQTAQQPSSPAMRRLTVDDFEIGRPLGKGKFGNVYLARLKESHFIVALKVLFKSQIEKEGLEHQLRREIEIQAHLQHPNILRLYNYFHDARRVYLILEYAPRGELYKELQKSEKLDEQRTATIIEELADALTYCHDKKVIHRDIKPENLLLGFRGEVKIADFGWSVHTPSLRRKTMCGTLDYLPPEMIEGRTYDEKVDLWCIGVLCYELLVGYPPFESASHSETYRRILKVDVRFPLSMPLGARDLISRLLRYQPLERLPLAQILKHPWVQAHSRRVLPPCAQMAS
Description: Inhibition of recombinant full-length His-tagged human Aurora C expressed in baculovirus expression system

T1 sequence (Q96GD4 whole entry, canonical isoform): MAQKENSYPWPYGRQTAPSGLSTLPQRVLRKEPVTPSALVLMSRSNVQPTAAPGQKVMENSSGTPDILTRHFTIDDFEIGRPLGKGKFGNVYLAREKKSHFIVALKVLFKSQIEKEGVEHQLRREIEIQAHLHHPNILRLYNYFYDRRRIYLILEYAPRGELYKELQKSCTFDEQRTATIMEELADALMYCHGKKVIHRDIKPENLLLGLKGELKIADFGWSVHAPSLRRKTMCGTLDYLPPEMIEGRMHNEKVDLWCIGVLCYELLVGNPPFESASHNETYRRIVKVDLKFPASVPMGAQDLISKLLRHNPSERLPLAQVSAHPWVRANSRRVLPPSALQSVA
Chain of Phosphatidylinositol 4,5-bisphosphate 3-kinase catalytic subunit alpha isoform (Homo sapiens) (P42336 whole entry, canonical isoform): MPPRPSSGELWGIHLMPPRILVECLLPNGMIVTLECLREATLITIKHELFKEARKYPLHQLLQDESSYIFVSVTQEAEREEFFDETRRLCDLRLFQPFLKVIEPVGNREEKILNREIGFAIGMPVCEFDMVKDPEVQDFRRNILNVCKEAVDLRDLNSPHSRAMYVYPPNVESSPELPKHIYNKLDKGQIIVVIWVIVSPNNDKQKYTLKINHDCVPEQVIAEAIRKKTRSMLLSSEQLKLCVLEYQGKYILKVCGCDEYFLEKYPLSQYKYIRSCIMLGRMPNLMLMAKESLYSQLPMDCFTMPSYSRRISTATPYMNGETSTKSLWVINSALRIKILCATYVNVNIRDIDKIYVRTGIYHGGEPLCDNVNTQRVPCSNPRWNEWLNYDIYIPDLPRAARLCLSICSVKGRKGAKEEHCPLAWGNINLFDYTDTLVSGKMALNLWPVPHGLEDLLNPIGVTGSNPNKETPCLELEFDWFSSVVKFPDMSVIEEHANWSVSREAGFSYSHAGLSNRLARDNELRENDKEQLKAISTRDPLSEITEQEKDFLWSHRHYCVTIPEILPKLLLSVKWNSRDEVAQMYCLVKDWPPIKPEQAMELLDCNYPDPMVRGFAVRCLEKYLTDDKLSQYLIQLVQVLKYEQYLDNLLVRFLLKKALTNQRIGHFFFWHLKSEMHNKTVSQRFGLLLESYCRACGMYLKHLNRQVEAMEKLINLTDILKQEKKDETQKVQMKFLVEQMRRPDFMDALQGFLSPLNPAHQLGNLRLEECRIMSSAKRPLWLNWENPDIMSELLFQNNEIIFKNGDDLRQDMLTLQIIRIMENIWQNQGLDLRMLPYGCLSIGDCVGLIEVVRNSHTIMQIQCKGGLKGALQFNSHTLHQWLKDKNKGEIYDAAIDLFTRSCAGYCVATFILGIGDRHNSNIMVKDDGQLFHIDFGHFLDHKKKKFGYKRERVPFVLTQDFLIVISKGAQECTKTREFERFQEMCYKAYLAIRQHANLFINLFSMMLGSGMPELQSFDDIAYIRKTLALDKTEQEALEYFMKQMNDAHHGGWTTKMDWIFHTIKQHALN
Chain of Vascular endothelial growth factor receptor 2 (Homo sapiens) (P35968 whole entry): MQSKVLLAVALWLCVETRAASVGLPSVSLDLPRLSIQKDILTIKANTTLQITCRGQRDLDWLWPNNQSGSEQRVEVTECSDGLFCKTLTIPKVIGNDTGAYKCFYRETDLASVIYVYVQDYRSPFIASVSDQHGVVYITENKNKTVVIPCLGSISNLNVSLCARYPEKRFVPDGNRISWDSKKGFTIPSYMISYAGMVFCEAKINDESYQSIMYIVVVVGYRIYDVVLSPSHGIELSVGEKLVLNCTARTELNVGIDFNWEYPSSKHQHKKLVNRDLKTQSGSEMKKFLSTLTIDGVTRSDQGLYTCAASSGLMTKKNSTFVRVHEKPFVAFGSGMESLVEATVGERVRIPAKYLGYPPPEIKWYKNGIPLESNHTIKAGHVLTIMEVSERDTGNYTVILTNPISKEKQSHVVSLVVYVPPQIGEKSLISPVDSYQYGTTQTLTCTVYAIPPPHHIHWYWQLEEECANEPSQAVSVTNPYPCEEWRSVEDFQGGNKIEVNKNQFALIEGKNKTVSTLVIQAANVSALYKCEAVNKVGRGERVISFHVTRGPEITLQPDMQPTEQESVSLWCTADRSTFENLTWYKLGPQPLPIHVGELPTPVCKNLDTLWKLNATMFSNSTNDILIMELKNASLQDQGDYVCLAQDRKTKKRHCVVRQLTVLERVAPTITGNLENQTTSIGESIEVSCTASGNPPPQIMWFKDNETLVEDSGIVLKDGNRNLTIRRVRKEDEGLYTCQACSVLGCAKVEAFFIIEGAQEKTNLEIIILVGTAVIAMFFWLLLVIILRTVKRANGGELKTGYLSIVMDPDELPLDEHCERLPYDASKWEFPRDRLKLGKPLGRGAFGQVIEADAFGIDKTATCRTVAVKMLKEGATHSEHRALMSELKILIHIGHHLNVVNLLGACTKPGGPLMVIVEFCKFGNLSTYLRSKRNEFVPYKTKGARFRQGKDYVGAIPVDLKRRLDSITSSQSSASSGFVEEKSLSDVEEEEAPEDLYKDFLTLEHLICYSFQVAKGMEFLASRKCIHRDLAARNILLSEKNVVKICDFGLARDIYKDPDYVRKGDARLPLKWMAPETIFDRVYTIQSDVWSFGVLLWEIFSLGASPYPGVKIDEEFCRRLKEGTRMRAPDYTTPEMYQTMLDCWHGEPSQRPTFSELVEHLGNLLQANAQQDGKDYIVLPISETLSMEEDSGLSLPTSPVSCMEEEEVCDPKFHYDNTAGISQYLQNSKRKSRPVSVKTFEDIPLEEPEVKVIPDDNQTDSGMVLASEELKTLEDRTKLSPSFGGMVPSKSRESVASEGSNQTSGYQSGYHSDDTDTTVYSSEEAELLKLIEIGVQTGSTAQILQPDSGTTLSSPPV
Chain of Fibroblast growth factor receptor 1 (Homo sapiens) (P11362 22-822 limits assumed): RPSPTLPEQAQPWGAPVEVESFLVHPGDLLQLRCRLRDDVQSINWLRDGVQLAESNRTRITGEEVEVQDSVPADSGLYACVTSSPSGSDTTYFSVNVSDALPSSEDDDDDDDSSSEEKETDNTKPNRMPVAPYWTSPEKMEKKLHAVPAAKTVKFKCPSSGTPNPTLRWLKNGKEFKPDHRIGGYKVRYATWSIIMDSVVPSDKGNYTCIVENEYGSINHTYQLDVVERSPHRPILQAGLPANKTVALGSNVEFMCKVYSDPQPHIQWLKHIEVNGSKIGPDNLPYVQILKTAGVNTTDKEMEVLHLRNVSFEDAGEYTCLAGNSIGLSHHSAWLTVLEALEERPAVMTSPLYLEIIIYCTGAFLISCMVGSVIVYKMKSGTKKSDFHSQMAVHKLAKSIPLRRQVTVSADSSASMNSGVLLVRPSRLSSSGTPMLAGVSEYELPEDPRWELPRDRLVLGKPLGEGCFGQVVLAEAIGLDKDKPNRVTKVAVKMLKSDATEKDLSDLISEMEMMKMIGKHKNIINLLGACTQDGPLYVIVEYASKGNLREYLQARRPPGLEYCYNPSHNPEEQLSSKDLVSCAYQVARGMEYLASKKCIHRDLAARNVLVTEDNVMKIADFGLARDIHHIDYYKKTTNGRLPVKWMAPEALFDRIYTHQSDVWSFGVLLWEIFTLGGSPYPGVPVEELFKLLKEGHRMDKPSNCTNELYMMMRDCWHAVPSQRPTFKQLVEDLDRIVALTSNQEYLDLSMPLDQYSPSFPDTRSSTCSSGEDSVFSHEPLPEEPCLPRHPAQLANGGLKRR

Molecule `O=C(Nc1ccc(Nc2nccc(NC3CC3)n2)cc1)Nc1ccc(Cl)c(C(F)(F)F)c1` has an IC50 [1] of 18.5 µM, an IC50 [2] of 38.2 µM and an IC50 [3] of 16.4 µM.

`O=C(Cc1cccc(C(F)(F)F)c1)Nc1ccc(Nc2nccc(NC3CCCC3)n2)cc1` gave an IC50 [1] of 8.27 µM, an IC50 [2] of 5.7 µM and an IC50 [3] of 5.44 µM.

With `O=C(Nc1ccc(Nc2nccc(Nc3ccccc3Cl)n2)cc1)Nc1ccc(Cl)c(C(F)(F)F)c1` the IC50 [1] was 18.6 µM, the IC50 [2] was 27.9 µM and the IC50 [3] was 8.1 µM.

For `O=C(Nc1ccc(Nc2nccc(NC3CCCC3)n2)cc1)NC1CCCCC1`, the inhibition [4] was under 1%, the IC50 [1] was 5.32 µM and the IC50 [2] was 19.2 µM. For the same molecule, the inhibition [5] was 4.5%, the IC50 [6] was 0.329 µM and the inhibition [7] was 16.8%. It also gave an IC50 [3] of 1.09 µM.

With `O=C(Cc1ccc(Nc2nccc(NC3CCCC3)n2)cc1)NC1CCCCC1` the Activity [8] was “Active”, the inhibition [4] was under 1% and the viability at 1 µM [9] was 7.46%. The Activity [10] was 1.9%, the Activity [11] was 45.64% and the IC50 [1] was 12.1 µM. For the same molecule, the IC50 [2] was 20.5 µM, the Activity [12] was 22.54% and the inhibition [5] was under 1%. For the same molecule, the Activity [13] was 4.39%, the Activity [14] was 46.07% and the Activity [15] was “Dose-dependent effect”. For the same molecule, the Activity [16] was 0.84%, the viability at 0.1 µM [17] was 87.8% and the Activity [18] was “Active”. The inhibition [19] was “Active”, the viability at 0.5 µM [20] was 58% and the inhibition [21] was “Active”. It also gave an IC50 [6] of 0.293 µM, an Activity [22] of 15.45% and an inhibition [7] of 2.4%. For the same molecule, the Activity [23] was 5.89%, the Activity [24] was 3.99% and the IC50 [3] was 1.31 µM. It also gave an IC50 [25] of 0.309 µM.

Work on `CCCNc1ccnc(Nc2ccc(NC(=O)Nc3ccc(Cl)c(C(F)(F)F)c3)cc2)n1` yielded an IC50 [1] of 7.32 µM, an IC50 [2] of 4.61 µM and an IC50 [3] of 4.24 µM.

`Cc1cc(Nc2cc(N3CCN(C)CC3)nc(Sc3ccc(NC(=O)C4CC4)cc3)n2)n[nH]1` [TOZASERTIB] was tested, and the IC50 [1] was 3.9 µM, the IC50 [2] was 17.4 µM and the IC50 [3] was 1.49 µM.

`O=C(Nc1ccc(Nc2nccc(NC3CCCC3)n2)cc1)Nc1ccc(Cl)c(C(F)(F)F)c1` gave an IC50 [1] of 5.88 µM, an IC50 [2] of 2.33 µM and an IC50 [3] of 2.51 µM.

`O=C(Nc1ccc(Nc2nccc(Nc3cccc(Cl)c3)n2)cc1)Nc1ccc(Cl)c(C(F)(F)F)c1` showed an IC50 [1] of 8.05 µM, an IC50 [2] of 10.4 µM and an IC50 [3] of 4.82 µM.

`c1nc2nc(Nc3ccc(N4CCOCC4)cc3)nc(NC3CCCCC3)c2[nH]1` [REVERSINE] gave an IC50 [26] of 0.4 µM.

With `O=C(Nc1ccc(Nc2nccc(Nc3ccccc3)n2)cc1)Nc1ccc(Cl)c(C(F)(F)F)c1` the IC50 [1] was over 50 µM, the IC50 [2] was over 50 µM and the IC50 [3] was over 50 µM.

`O=C(CC1CCCCC1)Nc1ccc(Nc2nccc(NC3CCCC3)n2)cc1` was tested, and the IC50 [1] was 3.94 µM, the IC50 [2] was 17.6 µM and the IC50 [3] was 2.44 µM.

Work on `O=C(Nc1ccc(Cl)cc1)Nc1ccc(Nc2nccc(NC3CCCC3)n2)cc1` yielded an IC50 [1] of 11.8 µM, an IC50 [2] of 22 µM and an IC50 [3] of 5.31 µM.

`O=C(Nc1ccc(Nc2nccc(Nc3ccc(Cl)cc3)n2)cc1)Nc1ccc(Cl)c(C(F)(F)F)c1` gave an IC50 [1] of 6.32 µM, an IC50 [2] of 12.8 µM and an IC50 [3] of 4.66 µM.

`O=C(Nc1ccc(Nc2nccc(NC3CCCC3)n2)cc1)Nc1cccc(C(F)(F)F)c1` gave an IC50 [1] of 4.9 µM, an IC50 [2] of 5.18 µM and an IC50 [3] of 2.41 µM.

`O=C(Cc1ccc(Nc2nccc(NC3CCCC3)n2)cc1)Nc1cccc(C(F)(F)F)c1` showed an IC50 [1] of 3.4 µM, an IC50 [2] of 16.4 µM and an IC50 [3] of 2.5 µM.

For `O=C(Nc1ccc(Nc2nccc(NC3CCCCC3)n2)cc1)Nc1ccc(Cl)c(C(F)(F)F)c1`, the IC50 [1] was 7.43 µM, the IC50 [2] was 10.8 µM and the IC50 [3] was 5.95 µM.

`Cn1cc(Nc2ccnc(Nc3ccc(NC(=O)Nc4ccc(Cl)c(C(F)(F)F)c4)cc3)n2)cn1` showed an IC50 [1] of 8.61 µM, an IC50 [2] of 9.77 µM and an IC50 [3] of 4.85 µM.
